Results published in patent US8048825B2, “Haloalkylsulfonanilide derivatives or salt thereof, herbicide comprising the derivatives as active ingredient, and use of the herbicide” (Nihon Nohyaku Co., Ltd., priority 2006, dated 2011).

Columns and labels:
Assay type in all cases: in vivo
Lindernia procumbens [1] = test: Herbicidal efficacy on paddy field weeds of pre-emergence stage (Pre), Test Example 1; settings: 1000 g/ha as active ingredient, examined after 21 days
In short: (§1)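 Clay-loam pots sown with Scirpus juncoides, covered with soil containing Lindernia procumbens seed, flooded to 5 cm. Next day formulated compound applied dropwise to water at 1000 g/ha a.i. Greenhouse-grown; growth inhibition versus untreated scored 0–5 after 21 days.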

Scirpus juncoides [2] = test: as above; settings: 1000 g/ha as active ingredient, examined after 21 days
In short: as §1

Echinochloa crus-galli = test: Herbicidal effect on paddy field weeds of post-emergence stage (Post), Test Example 2; settings: one-leaf stage, 1000 g/ha as active ingredient, examined after 21 days
In short: (§2)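 Scirpus juncoides and Echinochloa crus-galli sown in clay loam, with Lindernia procumbens seed in the soil cover, under 5 cm flooding in greenhouse. At one-leaf stage, 1000 g/ha active ingredient applied to pot water. Efficacy scored visually 0–5 against untreated plants at 21 days after treatment.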

Lindernia procumbens [3] = test: as above; settings: one-leaf stage, 1000 g/ha as active ingredient, examined after 21 days
In short: as §2

Scirpus juncoides [4] = test: as above; settings: one-leaf stage, 1000 g/ha as active ingredient, examined after 21 days
In short: as §2

| SMILES | Lindernia procumbens pre (herbicidal effect) (Lindernia procumbens [1]) | Scirpus juncoides pre (herbicidal effect) (Scirpus juncoides [2]) | Echinochloa crus-galli post (herbicidal effect) (Echinochloa crus-galli) | Lindernia procumbens post (herbicidal effect) (Lindernia procumbens [3]) | Scirpus juncoides post (herbicidal effect) (Scirpus juncoides [4]) |
| --- | --- | --- | --- | --- | --- |
| CCOC(=O)N(c1ccccc1CN1CCC(c2ccccc2)(C2CCC2)OC1=O)S(=O)(=O)C(F)(F)F (stereo not shown) [Compound 1-208] | 4 (90%-99% herbicidal effect, phytotoxicity) | 4 (90%-99% herbicidal effect, phytotoxicity) | 4 (90%-99% herbicidal effect, phytotoxicity) | 4 (90%-99% herbicidal effect, phytotoxicity) | 4 (90%-99% herbicidal effect, phytotoxicity) |
| CC(C)COC(=O)N(c1ccccc1CN1CCC(c2ccccc2)(C2CCC2)OC1=O)S(=O)(=O)C(F)(F)F (stereo not shown) [Compound 1-211] | 4 (90%-99% herbicidal effect, phytotoxicity) | 4 (90%-99% herbicidal effect, phytotoxicity) | 4 (90%-99% herbicidal effect, phytotoxicity) | 4 (90%-99% herbicidal effect, phytotoxicity) | 4 (90%-99% herbicidal effect, phytotoxicity) |
| CCOC(=O)N(c1ccccc1CN1CCC(c2ccccc2)(C(F)(F)F)OC1=O)S(=O)(=O)C(F)(F)F (stereo not shown) [Compound 1-230] | 5 (100% herbicidal effect, phytotoxicity) | 5 (100% herbicidal effect, phytotoxicity) | 4 (90%-99% herbicidal effect, phytotoxicity) | 5 (100% herbicidal effect, phytotoxicity) | 4 (90%-99% herbicidal effect, phytotoxicity) |
| CC1(C)CN(Cc2ccccc2NS(=O)(=O)C(F)(F)F)C(=O)OC1c1ccccc1 (stereo not shown) [Compound 1-261] | 5 (100% herbicidal effect, phytotoxicity) | 5 (100% herbicidal effect, phytotoxicity) | 4 (90%-99% herbicidal effect, phytotoxicity) | 5 (100% herbicidal effect, phytotoxicity) | 4 (90%-99% herbicidal effect, phytotoxicity) |
| CCOC(=O)N(c1ccccc1CN1CC(C)(C)C(c2ccccc2)OC1=O)S(=O)(=O)C(F)(F)F (stereo not shown) [Compound 1-263] | 5 (100% herbicidal effect, phytotoxicity) | 4 (90%-99% herbicidal effect, phytotoxicity) | 4 (90%-99% herbicidal effect, phytotoxicity) | 5 (100% herbicidal effect, phytotoxicity) | 4 (90%-99% herbicidal effect, phytotoxicity) |
| O=C1OC(c2c(Cl)cccc2Cl)CCN1Cc1ccccc1NS(=O)(=O)C(F)(F)F (stereo not shown) [Compound 1-272] | 5 (100% herbicidal effect, phytotoxicity) | 4 (90%-99% herbicidal effect, phytotoxicity) | 4 (90%-99% herbicidal effect, phytotoxicity) | 5 (100% herbicidal effect, phytotoxicity) | 4 (90%-99% herbicidal effect, phytotoxicity) |
| CCOC(=O)N(c1ccccc1CN1CCC(c2c(Cl)cccc2Cl)OC1=O)S(=O)(=O)C(F)(F)F (stereo not shown) [Compound 1-274] | 5 (100% herbicidal effect, phytotoxicity) | 4 (90%-99% herbicidal effect, phytotoxicity) | 4 (90%-99% herbicidal effect, phytotoxicity) | 5 (100% herbicidal effect, phytotoxicity) | 4 (90%-99% herbicidal effect, phytotoxicity) |
| Cc1ccccc1C1CCN(Cc2ccccc2NS(=O)(=O)C(F)(F)F)C(=O)O1 (stereo not shown) [Compound 1-283] | 5 (100% herbicidal effect, phytotoxicity) | 5 (100% herbicidal effect, phytotoxicity) | 4 (90%-99% herbicidal effect, phytotoxicity) | 5 (100% herbicidal effect, phytotoxicity) | 4 (90%-99% herbicidal effect, phytotoxicity) |
| CCOC(=O)N(c1ccccc1CN1CCC(c2ccccc2C)OC1=O)S(=O)(=O)C(F)(F)F (stereo not shown) [Compound 1-285] | 5 (100% herbicidal effect, phytotoxicity) | 4 (90%-99% herbicidal effect, phytotoxicity) | 4 (90%-99% herbicidal effect, phytotoxicity) | 5 (100% herbicidal effect, phytotoxicity) | 4 (90%-99% herbicidal effect, phytotoxicity) |
| CCOC(=O)N(c1ccccc1CN1CCC(c2ccccc2C(F)(F)F)OC1=O)S(=O)(=O)C(F)(F)F (stereo not shown) [Compound 1-296] | 5 (100% herbicidal effect, phytotoxicity) | 4 (90%-99% herbicidal effect, phytotoxicity) | 4 (90%-99% herbicidal effect, phytotoxicity) | 5 (100% herbicidal effect, phytotoxicity) | 4 (90%-99% herbicidal effect, phytotoxicity) |
| CCC1(c2ccccc2)CCN(Cc2ccccc2NS(=O)(=O)C(F)(F)F)C(=O)O1 (stereo not shown) [Compound 1-316] | 5 (100% herbicidal effect, phytotoxicity) | 4 (90%-99% herbicidal effect, phytotoxicity) | 4 (90%-99% herbicidal effect, phytotoxicity) | 5 (100% herbicidal effect, phytotoxicity) | 4 (90%-99% herbicidal effect, phytotoxicity) |
| CCC1(c2ccccc2)CCN(Cc2ccccc2N(C(=O)OC)S(=O)(=O)C(F)(F)F)C(=O)O1 (stereo not shown) [Compound 1-317] | 5 (100% herbicidal effect, phytotoxicity) | 4 (90%-99% herbicidal effect, phytotoxicity) | 4 (90%-99% herbicidal effect, phytotoxicity) | 5 (100% herbicidal effect, phytotoxicity) | 4 (90%-99% herbicidal effect, phytotoxicity) |
| CCOC(=O)N(c1ccccc1CN1CCC(CC)(c2ccccc2)OC1=O)S(=O)(=O)C(F)(F)F (stereo not shown) [Compound 1-318] | 5 (100% herbicidal effect, phytotoxicity) | 4 (90%-99% herbicidal effect, phytotoxicity) | 4 (90%-99% herbicidal effect, phytotoxicity) | 5 (100% herbicidal effect, phytotoxicity) | 4 (90%-99% herbicidal effect, phytotoxicity) |
| CCC1(c2ccccc2)CCN(Cc2ccccc2N(C(=O)OCC(C)C)S(=O)(=O)C(F)(F)F)C(=O)O1 (stereo not shown) [Compound 1-321] | 5 (100% herbicidal effect, phytotoxicity) | 4 (90%-99% herbicidal effect, phytotoxicity) | 4 (90%-99% herbicidal effect, phytotoxicity) | 5 (100% herbicidal effect, phytotoxicity) | 4 (90%-99% herbicidal effect, phytotoxicity) |
| CC(C)(C)C1(C)CCN(Cc2ccccc2NS(=O)(=O)C(F)(F)F)C(=O)O1 (stereo not shown) [Compound 1-327] | 5 (100% herbicidal effect, phytotoxicity) | 5 (100% herbicidal effect, phytotoxicity) | 4 (90%-99% herbicidal effect, phytotoxicity) | 5 (100% herbicidal effect, phytotoxicity) | 4 (90%-99% herbicidal effect, phytotoxicity) |
| CCOC(=O)N(c1ccccc1CN1CCC(C)(C(C)(C)C)OC1=O)S(=O)(=O)C(F)(F)F (stereo not shown) [Compound 1-329] | 5 (100% herbicidal effect, phytotoxicity) | 5 (100% herbicidal effect, phytotoxicity) | 4 (90%-99% herbicidal effect, phytotoxicity) | 5 (100% herbicidal effect, phytotoxicity) | 4 (90%-99% herbicidal effect, phytotoxicity) |
| CC(C)COC(=O)N(c1ccccc1CN1CCC(C)(C(C)(C)C)OC1=O)S(=O)(=O)C(F)(F)F (stereo not shown) [Compound 1-332] | 5 (100% herbicidal effect, phytotoxicity) | 5 (100% herbicidal effect, phytotoxicity) | 4 (90%-99% herbicidal effect, phytotoxicity) | 5 (100% herbicidal effect, phytotoxicity) | 4 (90%-99% herbicidal effect, phytotoxicity) |
